Consider one molecule from US20230120044A1, “AGROCHEMICAL ADJUVANTS” (Croda International Plc, priority 2020, published 2023).

The subject of this assay is Botrytis cinerea (ATCC 90479). Kind of assay: Adjuvancy with pyraclostrobin, agar growth inhibition of hyphal inoculum. Conditions: for Fold Change in Growth Inhibition: vs pyraclostrobin alone, 48 hours, 22° C. It is filed as cell-based. How it is done:
Percent Inhibition—The percent inhibition will be understood to represent the amount the fungicide and/or adjuvant inhibits the visible growth of the microorganism after 48 hours incubation at 22° C. relative to vehicle treated controls. This is calculated using the following formula: […]
Fold Change—The fold change is a measure of the adjuvant/fungicide combination in inhibiting a microorganism compared to the fungicide alone. This indicates how the adjuvant performs relative to the fungicide alone. This is calculated using the following formula: […]
Botrytis cinerea (ATCC 90479) was cultured on potato dextrose agar (PDA) for 7 days with diurnal UV cycles (12 h UV light and 12 h dark). Spores were harvested in a buffered, sterile saline solution (0.9% saline water with 1% Tween 80) and counted using a haemocytometer. The spore suspension was adjusted to a final concentration of 8.5×10^6 spores/mL to create a standardised inoculum.
To prepare hyphal fragments for adjuvant testing, 8.5×10^4 spores were used to inoculate 10 mL of potato dextrose broth in a 150×25 mm tube. The tube was incubated at 220 RPM, 22° C. for 48 hours. To create hyphal fragments from the culture, the culture was transferred to a 50 mL plastic conical tube containing approximately 20 sterile 5 mm diameter glass beads and vortexed for 5 min. After vortexing the tube was allowed to stand for 5 min to allow large mycelial clumps to settle and then the top layer containing hyphal fragments was removed and used as inocula for growth inhibition assays.
Fungicides and adjuvants were dissolved in methanol and added to molten PDA (˜50° C.) and then the agar was distributed in the wells of 12 well multiwell plates (1 mL/well). The plates were cooled to room temperature and 10 μL of hyphal inoculum was added to the centre of each well. The plates were incubated at 22° C. for 48 hours and then the colony diameter was measured using a digital caliper. The biological growth control consisted of hyphae and vehicle (0.07% methanol), the negative control was media and vehicle (0.07% methanol).

The structures appear in SMILES notation.

Regarding `C/C=C/[C@@H]1[C@H]2C[C@@H](C)CC[C@@H]2C(C)=C[C@H]1C(=O)c1c(O)c(-c2ccc(O)cc2)c[nH]c1=O` [Ilicicolin H (A), ilicicolin H], the “Fold Change in Growth Inhibition” value is, setting by setting: (adjuvant 1.56 μg/mL + pyraclostrobin 0.1 μg/mL) 3.32; (adjuvant 1.56 μg/mL + pyraclostrobin 0.2 μg/mL) 1.93; (adjuvant 1.56 μg/mL + pyraclostrobin 0.4 μg/mL) 1.36; (adjuvant 1.56 μg/mL + pyraclostrobin 0.8 μg/mL) 1.04; (adjuvant 3.13 μg/mL + pyraclostrobin 0.1 μg/mL) 3.51; (adjuvant 3.13 μg/mL + pyraclostrobin 0.2 μg/mL) 2.43. Further, the “Fold Change in Growth Inhibition” value worked out at 1.35 (adjuvant 3.13 μg/mL + pyraclostrobin 0.4 μg/mL); 1.21 (adjuvant 3.13 μg/mL + pyraclostrobin 0.8 μg/mL); 3.62 (adjuvant 6.25 μg/mL + pyraclostrobin 0.1 μg/mL); 1.88 (adjuvant 6.25 μg/mL + pyraclostrobin 0.2 μg/mL); 1.26 (adjuvant 6.25 μg/mL + pyraclostrobin 0.4 μg/mL); 0.96 (adjuvant 6.25 μg/mL + pyraclostrobin 0.8 μg/mL). For the same molecule, the “inherent fungicidal activity on their own” value (adjuvant alone, at any of the concentrations tested) is listed as “did not demonstrate any inherent fungicidal activity”.
